PubChem BioAssay (NCI)
“And” between values parts separate entries of the source, which are not always exact repeats. Identical values can stand only once.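 Five compound concentrations were applied to cells in 96-well plates for 48 hours; endpoints were derived by simple linear interpolation of the resulting dose-response curve. Here, GI50 denotes the concentration required for 50% inhibition of growth. TGI: total growth inhibition.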

Experiments:
Test in all cases: NCI tumour cell line growth inhibition, 48 h
[1] = test system: BT-549 breast
[2] = test system: DU-145 prostate
[3] = test system: HS 578T breast
[4] = test system: MDA-MB-231 breast
[5] = test system: MDA-MB-435
[6] = test system: NCI/ADR-RES ovarian
[7] = test system: MCF7 breast

Compound	TGI [1]	TGI [2]	TGI [3]	TGI [4]	TGI [5]	TGI [6]	GI50 [1]	GI50 [2]	GI50 [3]	GI50 [7]	TGI [7]	GI50 [4]	GI50 [5]	GI50 [6]
O=C1NC(=S)NC(=O)C1=Cc1cccc2cc3ccccc3cc12	3.33 µM	3.63 µM	> 25.6 µM	3.69 µM	4.65 µM	5.89 µM								
O=CN1N=C(c2ccc(Cl)cc2)CC1c1cccc(Nc2ccnc3cc(Cl)ccc23)c1 (stereo unspecified)	15.4 µM	> 100 µM	> 100 µM	39.2 µM	17.2 µM	> 100 µM	1.78 µM	2.8 µM	3.23 µM	0.866 µM	16 µM	2.74 µM	0.377 µM	0.784 µM
C=C(C)CN(CC#N)CC(=C)C	> 100 µM	> 100 µM	> 100 µM	> 100 µM	> 100 µM	> 100 µM					> 100 µM			
Cc1cc(I)cc(CN(C)CCN2CCCC2)c1O	48.8 µM	> 100 µM	67.1 µM	67.3 µM	42.4 µM	> 100 µM	18.7 µM	32.3 µM	31.6 µM	24.3 µM	53.7 µM	22 µM	18.3 µM	30.1 µM
O=C(Nc1ccc(F)cc1F)c1cc(Br)ccc1O	5.51 µM	> 100 µM	8.35 µM	7.95 µM	11.9 µM	18.2 µM	1.99 µM	3.85 µM	2.24 µM	2.56 µM	> 100 µM	2.26 µM	2.82 µM	2.86 µM
Cc1occc1C(=S)Nc1ccc(Cl)c(/C=N/OC(C)C)c1	36.5 µM	> 54.2 µM	67.9 µM	32.6 µM	31 µM	> 58 µM					> 51.6 µM			
COc1ccc2c(c1)CCc1[nH]c3ccccc3c1CCCC2	> 10 µM	> 10 µM	> 10 µM	> 10 µM	> 10 µM	> 10 µM					> 10 µM			
O=C(CC12CC3CC(CC(C3)C1)C2)NCCOCCOCCOCCNC(=O)c1cc2c(o1)C(=O)c1ccccc1C2=O	2.68 µM	1.28 µM	6.59 µM	9.81 µM	0.392 µM	7.65 µM	1.33 µM	0.407 µM	1.99 µM	0.808 µM	2.73 µM	2.43 µM	0.2 µM	2.47 µM
COc1cc2c(Oc3ccc4[nH]c(C)cc4c3F)ccnc2cc1OCC1(N)CC1	3.96 µM	> 100 µM	3.29 µM	4.61 µM	1.21 µM	> 100 µM	1.3 µM	3.67 µM	0.759 µM	0.484 µM	24.6 µM	1.8 µM	0.31 µM	2.31 µM
Cc1cc2cc3c(C)cc(=O)oc3c(C)c2o1	> 100 µM	> 100 µM	> 100 µM	> 100 µM	> 100 µM	> 100 µM					> 100 µM			
CC1(C)CC(n2cnc(-c3ccc(F)cc3)c2-c2ccnc(N)n2)CC(C)(C)N1	> 25 µM	> 25 µM	> 25 µM	> 25 µM	> 25 µM	> 25 µM	> 25 µM	> 25 µM	> 25 µM	6.01 µM	> 19.6 µM	> 22.7 µM	> 25 µM	> 25 µM
c1ccc2c(c1)-c1ccccc1C2N1CC2CCC(CC2)C1	47.9 µM	92 µM	33.2 µM	37.4 µM	73.4 µM	39.5 µM					32.7 µM			
O=c1[nH]ccc2nc(N3CCC(O)CC3)nc(Nc3cccc(C(F)(F)F)c3)c12	4.34 µM	19.3 µM	14.1 µM	> 100 µM	3.55 µM	7.33 µM	1.6 µM	1.56 µM	1.93 µM	2.84 µM	12.7 µM	12.2 µM	1.29 µM	2.37 µM
O=C([O][Hg][CH2]C1COCC([CH2][Hg][O]C(=O)c2ccccc2)O1)c1ccccc1 (stereo unspecified)	31.2 µM	28.7 µM	65.8 µM	45.6 µM	30.9 µM	61.6 µM	17.3 µM	15.2 µM	19.8 µM	1.25 µM	14.2 µM	19.4 µM	14.2 µM	21.1 µM
COc1cccc(-c2nc3sccn3c2-c2ccnc(NCCNS(=O)(=O)c3ccccc3)c2)c1	8.67 µM	> 100 µM	> 100 µM	> 100 µM	> 100 µM	23.9 µM	2.29 µM	2.98 µM	3.7 µM	3.14 µM	> 100 µM	3.81 µM	3.1 µM	2.66 µM
Nc1cc(-c2cccc(OC(F)(F)F)c2)nc2ccc(N3CCCC3)cc12	> 100 µM	13.2 µM and > 100 µM and > 57.8 µM	13.2 µM and > 100 µM	7.26 µM and > 38.6 µM and 56.9 µM	0.0455 µM and 0.0346 µM and 0.034 µM	20 µM and > 100 µM	0.208 µM and 0.182 µM and 0.1 µM	0.0458 µM and 0.0446 µM and 0.0377 µM	0.051 µM and 0.0484 µM and 0.0347 µM	0.037 µM and 0.036 µM and 0.0354 µM	17.2 µM and > 100 µM	0.0385 µM and 0.0353 µM and 0.0356 µM	< 0.0105 µM	0.0362 µM and 0.0363 µM and 0.0324 µM
C=CCN1C=CC(=O)[C@H](O[Si](C)(C)C(C)(C)C)[C@@H]1/C=C/c1ccccc1	35 µM	30.1 µM	34.3 µM	29.8 µM	30.6 µM	26.8 µM	16 µM	15.7 µM	14.1 µM	8.77 µM	21.9 µM	14.6 µM	12.3 µM	13.3 µM
CCN=c1cc2sc3cc(NCC)c(C)cc3nc-2cc1C	19.9 µM	4.16 µM	15.2 µM	11.1 µM	4.33 µM	7.31 µM	2.87 µM	1.97 µM	2.14 µM	0.242 µM	0.937 µM	0.334 µM	1.55 µM	1.77 µM
CN1CCCCCC(=N\O)/C(=N/O)CCCCC1	> 100 µM	> 100 µM	> 100 µM	> 100 µM	> 100 µM	> 100 µM					> 100 µM			

Compound	TGI [1]	TGI [2]	TGI [3]	TGI [4]	TGI [5]	TGI [6]	GI50 [1]	GI50 [2]	GI50 [3]	GI50 [7]	TGI [7]	GI50 [4]	GI50 [5]	GI50 [6]
C=CCN(CC=C)C(=O)c1cc(C)nc2c1c(=O)n(-c1ccccc1)c(=O)n2CC(O)CN1CCN(c2ncccn2)CC1 (stereo unspecified)		> 100 µM	> 100 µM	> 100 µM	> 100 µM	> 100 µM		> 100 µM	> 100 µM	33.3 µM	> 100 µM	> 100 µM	> 100 µM	> 100 µM
O=[N+]([O-])c1ccc(N=Nc2c(O)ccc3ccccc23)cc1	96.1 µM and > 100 µM	> 100 µM	46.6 µM and > 100 µM	> 100 µM	> 100 µM		30.3 µM and > 100 µM		18.3 µM and > 100 µM		> 100 µM			
Cc1cc(-c2nnc(N)nc2-c2ccc(F)cc2)cc(Cl)n1	> 100 µM	> 100 µM	> 100 µM	> 100 µM	> 100 µM	> 100 µM	58.1 µM	> 100 µM	> 100 µM	> 100 µM	> 100 µM	70.2 µM	> 100 µM	57.4 µM
Cc1cccc(Cl)c1NC(=O)/C=C/c1ccccc1	> 100 µM	> 100 µM	> 100 µM	> 100 µM	> 100 µM						> 100 µM			
O=C(Nc1cc[c]([Sb](=[O])([OH])[OH])cc1)c1ccccc1	> 100 µM	> 100 µM	> 100 µM	> 100 µM	> 100 µM	> 100 µM	> 100 µM	> 100 µM	> 100 µM			> 100 µM	> 100 µM	> 100 µM
Cc1ccc(-c2nc(N)nc3c2nnn3Cc2cccc(CO[C@H]3CCOC3)n2)o1	> 100 µM	> 100 µM	> 100 µM	> 100 µM	> 100 µM	> 100 µM	82 µM	> 100 µM	> 100 µM	> 100 µM	> 100 µM	> 100 µM	> 100 µM	> 100 µM
COc1cc(C(c2cc3c(cc2O)OCO3)N2CCCCC2)cc(OC)c1OC (stereo unspecified)	24.4 µM	35.6 µM	43.5 µM	29.3 µM	16.8 µM	39.2 µM					29.3 µM			
NC(=N\N=C/c1cccc([N+](=O)[O-])c1)/C(N)=N\N=C/c1cccc([N+](=O)[O-])c1		> 100 µM	> 100 µM	> 100 µM	> 100 µM	> 100 µM		> 100 µM	> 100 µM	> 100 µM	> 100 µM	> 100 µM	> 100 µM	> 100 µM
COc1ccc(-c2nc3ncccn3c2/C=C/C(=O)c2cc(OC)c(OC)c(OC)c2)cc1	5.92 µM	9.48 µM	14.7 µM	17.2 µM	10.6 µM	4.86 µM	1.45 µM	2.55 µM	1.91 µM	1.14 µM	3.32 µM	2.73 µM	2.28 µM	1.56 µM
CC1=C2C[C@H]3[C@@H](CC=C4C[C@@H](O)CC[C@@]43C)[C@@H]2CC[C@]12O[C@@H]1C[C@H](C)CN[C@H]1[C@H]2C	50 µM and > 100 µM	50 µM and 61.6 µM	> 100 µM	42.6 µM and 49.7 µM	> 50 µM and 42.1 µM	50 µM and 47.5 µM	31 µM and 52.1 µM	27.9 µM and 25.8 µM	> 50 µM and 35 µM	29 µM and 23.7 µM	50 µM and 55.9 µM	17.8 µM and 23.7 µM	> 50 µM and 17.2 µM	38.5 µM and 20.3 µM
Cc1cc(N2CCCC2)nc(NC2CCCC(Nc3ccnc4cc(Cl)ccc34)C2)n1 (stereo unspecified)	3.35 µM	2.77 µM	4.72 µM		3.11 µM	5.69 µM	1.8 µM	1.24 µM	2 µM	0.563 µM	2.63 µM		1.56 µM	1.78 µM
C[C@@H]1N=C(c2ccc(Br)cc2)Nc2nc3ccccn3c2C1=O	> 100 µM	> 100 µM	52 µM	> 100 µM	7.1 µM	> 100 µM	5.49 µM	23.2 µM	2.81 µM	2.99 µM	> 100 µM	6.08 µM	1.33 µM	7.45 µM
NC(=O)c1ccc2c(-c3ccnc(NCCCO)n3)c(-c3ccc(F)cc3)nn2c1	> 25 µM	> 25 µM	> 25 µM	> 25 µM	> 25 µM	> 25 µM	> 25 µM	> 22.8 µM	> 25 µM	> 16.9 µM	> 25 µM	> 25 µM	> 18.3 µM	> 25 µM
c1cc(OCCN2CCCCC2)ccc1CNc1ccc2nc(CCC3CCCCC3)[nH]c2c1	3.87 µM	11.5 µM	4.64 µM	3.02 µM	3.09 µM	5.74 µM	1.71 µM	3.33 µM	1.64 µM	1.7 µM	4.26 µM	1.58 µM	1.63 µM	2.21 µM
O=P([O-])(O)OP(=O)([O-])O.[NH-][C@@H]1CCCC[C@H]1[NH-].[Pt+4]	> 100 µM	> 100 µM	> 100 µM	> 100 µM	> 100 µM and 27.4 µM	> 100 µM	> 100 µM and 30.5 µM	25.9 µM and 12.2 µM	> 100 µM and 56.5 µM	7.78 µM and 2.93 µM	> 100 µM	> 100 µM	11.8 µM and 4.04 µM	38.4 µM and 5.2 µM
COC(=O)c1c2c(c(C)[n+]([O-])c1C)C(=O)C=C(NCc1ccc(OC)cc1)C2=O	15.8 µM	5.89 µM	21.6 µM	5.41 µM	1.15 µM	4.85 µM	4.29 µM	2.32 µM	5.32 µM	0.72 µM	2.14 µM	0.959 µM	0.598 µM	1.03 µM
CCCN1CCN(c2ccc3nc(-c4ccc5nc(-c6cc(OC)ccc6OC)[nH]c5c4)[nH]c3c2)CC1	36.1 µM	3.4 µM	55.6 µM	3.27 µM	3.24 µM	4.29 µM	15.7 µM	1.89 µM	20.1 µM	1.8 µM	3.82 µM	1.74 µM	1.79 µM	1.99 µM
Cn1nc(-c2ccccc2)nc1[N+](=O)[O-]	> 10 µM	> 10 µM	> 10 µM	> 10 µM	> 10 µM	> 10 µM								
COC(=O)C(=O)C(C(=O)C(=O)Nc1ccccc1C(C)=O)c1nc2ccc(C(=O)c3ccccc3)cc2[nH]c1=O (stereo unspecified)	> 100 µM		> 100 µM	> 100 µM		> 100 µM					> 100 µM			
